Reference: patent publication US20080102497A1, “ENZYMATIC HYDROLYSIS OF STARCH” (priority 2006, published 2008)
“And” between values parts separate entries of the source, which are not always exact repeats. Equal entries are not always repeated. Where two headings read alike, the source gives them in different places.

How the values were obtained:
β-amylase from barley = β-amylase from barley (Hordeum vulgare, UniProt P16098); test: hydrolysis of cooked dent corn starch with other additives; assay type: biochemical; details: for effect on rate of enzymatic hydrolysis (in words): 10 mM additive, cooked dent corn starch; for Relative Activity: cooked dent corn starch 0.5%, pH 5.2, 37° C., 10 min
β-amylase from barley, sequence (P16098 whole entry): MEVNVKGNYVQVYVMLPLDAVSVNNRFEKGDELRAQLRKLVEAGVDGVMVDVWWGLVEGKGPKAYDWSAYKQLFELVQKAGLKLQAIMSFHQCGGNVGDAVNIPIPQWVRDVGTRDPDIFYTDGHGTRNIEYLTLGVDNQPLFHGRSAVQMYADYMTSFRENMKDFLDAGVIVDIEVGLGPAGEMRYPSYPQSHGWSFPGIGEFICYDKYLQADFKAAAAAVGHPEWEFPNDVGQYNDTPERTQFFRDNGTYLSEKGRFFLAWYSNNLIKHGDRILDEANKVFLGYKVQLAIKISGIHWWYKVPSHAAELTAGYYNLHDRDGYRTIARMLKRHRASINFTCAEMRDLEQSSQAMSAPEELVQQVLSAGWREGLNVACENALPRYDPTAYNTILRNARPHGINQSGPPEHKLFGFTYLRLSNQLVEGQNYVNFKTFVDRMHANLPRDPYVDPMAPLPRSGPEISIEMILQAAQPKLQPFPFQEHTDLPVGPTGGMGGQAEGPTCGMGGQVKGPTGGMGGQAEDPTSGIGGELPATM
Procedure: […] The separate reaction mixtures were incubated at 37° C. for 10 minutes. The control reaction mixture contained enzyme, buffer, and starch but no additive. The starch hydrolysis reaction was stopped by combining the reaction mixture with a solution containing DNSA and heating for 30 min at 85° C. The absorbance of the control and test samples was measured at […] to monitor the amount of reducing sugar in each sample.

[1] = target: α-amylase from Bacillus licheniformis (Bacillus licheniformis, UniProt P06278); test: as above; assay type: biochemical; details: for effect on rate of enzymatic hydrolysis (in words): 10 mM additive, cooked dent corn starch; for Relative Activity: cooked dent corn starch 0.5%, pH 5.2, 37° C., 10 min
α-amylase from Bacillus licheniformis, sequence (P06278 30-512): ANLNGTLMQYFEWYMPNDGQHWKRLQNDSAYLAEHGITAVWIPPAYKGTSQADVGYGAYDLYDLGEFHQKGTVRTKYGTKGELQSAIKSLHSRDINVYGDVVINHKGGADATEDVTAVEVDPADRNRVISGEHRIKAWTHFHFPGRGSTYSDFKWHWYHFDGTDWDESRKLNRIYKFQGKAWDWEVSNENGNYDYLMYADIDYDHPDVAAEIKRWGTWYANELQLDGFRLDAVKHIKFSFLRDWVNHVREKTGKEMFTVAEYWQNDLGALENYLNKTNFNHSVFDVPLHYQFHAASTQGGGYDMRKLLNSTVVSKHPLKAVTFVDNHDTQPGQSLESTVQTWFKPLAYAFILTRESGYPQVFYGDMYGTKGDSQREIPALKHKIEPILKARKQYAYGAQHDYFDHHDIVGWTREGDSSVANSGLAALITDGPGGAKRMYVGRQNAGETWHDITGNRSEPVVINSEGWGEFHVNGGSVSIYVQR
Procedure: The α-amylase from Bacillus licheniformis was added to a sodium acetate buffer solution, pH 5.2, […], di-sodium EDTA, NH4^+, Sr^++, Na^+, K^+, Al^+++, or Ba^++ and 0.5% by weight cooked dent corn starch. The separate reaction mixtures were incubated at 37° C. for 10 minutes. The control reaction mixture contained enzyme, buffer, and starch but no additive. The starch hydrolysis reaction was stopped by combining the reaction mixture with a solution containing DNSA and heating for 30 min at 85° C. The absorbance of the control and test samples was measured at 562 nm to monitor the amount of reducing sugar in each sample.

[2] = target: glucoamylase from Aspergillus Niger (Aspergillus niger, UniProt P69328); test: as above; assay type: biochemical; details: for effect on rate of enzymatic hydrolysis (in words): 10 mM additive, cooked dent corn starch; for Relative Activity: cooked dent corn starch 0.5%, pH 5.2, 37° C., 10 min
glucoamylase from Aspergillus Niger, sequence (P69328 25-640): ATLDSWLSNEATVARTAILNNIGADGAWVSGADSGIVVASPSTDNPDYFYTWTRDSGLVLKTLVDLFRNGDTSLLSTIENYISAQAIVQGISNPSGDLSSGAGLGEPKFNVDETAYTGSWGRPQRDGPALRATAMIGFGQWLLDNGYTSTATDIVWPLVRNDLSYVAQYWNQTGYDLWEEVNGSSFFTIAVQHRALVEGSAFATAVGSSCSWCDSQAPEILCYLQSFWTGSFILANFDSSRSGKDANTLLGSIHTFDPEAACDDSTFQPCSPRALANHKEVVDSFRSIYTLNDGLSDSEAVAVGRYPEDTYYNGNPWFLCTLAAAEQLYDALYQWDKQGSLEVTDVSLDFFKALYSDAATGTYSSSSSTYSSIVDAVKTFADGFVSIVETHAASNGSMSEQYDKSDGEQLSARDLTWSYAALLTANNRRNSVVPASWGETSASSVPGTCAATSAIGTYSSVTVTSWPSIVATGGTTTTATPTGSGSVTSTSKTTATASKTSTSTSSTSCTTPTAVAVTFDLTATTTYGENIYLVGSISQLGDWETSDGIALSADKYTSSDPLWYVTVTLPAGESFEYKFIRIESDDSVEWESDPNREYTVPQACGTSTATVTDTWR
Procedure: The glucoamylase from Aspergillus Niger was added to a sodium acetate buffer solution, pH 5.2, comprising no metal or 10 mM Fe^++, Mg^++, Li^+, Zn^++, Cu^++, Ca^++, di-sodium EDTA, NH4^+, Sr^++, Na^+, K^+, Al^+++, or Ba^++ and 0.5% by weight cooked dent corn starch. The separate reaction mixtures were incubated at 37° C. for 10 minutes. The control reaction mixture contained enzyme, buffer, and starch but no additive. The starch hydrolysis reaction was stopped by combining the reaction mixture with a solution containing DNSA and heating for 30 min at 85° C. The absorbance of the control and test samples was measured at 562 nm to monitor the amount of reducing sugar in each sample.

[3] = system: enzyme mixture of purified glucoamylase from mushroom and purified α-amylase from barley; test: hydrolysis of raw corn starch by enzyme mixture, reducing sugar by DNSA; assay type: biochemical; details: for Relative Activity: 10 mM additive, raw corn starch, pH 5.3, 37° C., 20 min; for effect on hydrolysis of raw corn starch (in words): summary of Table 2
Procedure: Enzyme mixture was also pre-incubated with 10 mM Fe^++, Cu^++, Ca^++, Mg^++, or disodium ethylenediamine-tetraacetic acid (EDTA). Thereafter, 40 μl of each pre-incubation solution was added to 15 mg raw corn starch, and the reaction mixture incubated at 37° C. for 20 minutes. The control reaction mixture contained substrate, enzyme, and buffer but no additional metal ions. The starch hydrolysis reaction was stopped by combining the reaction mixture with a solution containing 3,5 dinitrosalicylic acid (DNSA) and heating for 30 min at 85° C. The absorbance of the control and test samples was measured at 562 nm to monitor the amount of reducing sugar in each sample.

[4] = system: glucoamylase from Rhizopus sp.; details: 1.0 mM manganese salt, raw corn starch, pH 5.3, 37° C.
Procedure: An enzyme solution of the glucoamylase from Rhizopus sp. Was prepared in a sodium acetate buffer, pH 5.3, comprising 1.0 mM manganese chloride, manganese acetate, or manganese sulfate. Thereafter, 40 μl of each enzyme solution was added to 15 mg raw corn starch and the reaction mixtures incubated at 37° C. for 5, 10, 15, 20, or 25 minutes. The starch hydrolysis reaction was stopped by combining the reaction mixture with a solution containing DNSA and heating for 30 min at 85° C. The absorbance of the control and test samples was measured at 562 nm to monitor the amount of reducing sugar in each sample.

Molecule | effect on rate of enzymatic hydrolysis (in words) (β-amylase from barley) | Relative Activity (β-amylase from barley; Additive (10 mM)) | effect on rate of enzymatic hydrolysis (in words) [1] | Relative Activity ([1]; Additive (10 mM)) | effect on rate of enzymatic hydrolysis (in words) [2] | Relative Activity ([2]; Additive (10 mM)) | Relative Activity [3] | effect on hydrolysis of raw corn starch (in words) [3] | Relative Activity (β-amylase from barley; additive 1 mM) | Relative Activity ([1]; additive 1 mM) | Relative Activity ([2]; additive 1 mM) | % Conversion ([4]; 5 minutes) | % Conversion ([4]; 10 minutes) | % Conversion ([4]; 15 minutes) | % Conversion ([4]; 20 minutes) | % Conversion ([4]; 25 minutes) | % Conversion ([4]; time 0)
[Fe+2] [Fe^++] | do not significantly increase the rate of enzymatic hydrolysis | 88.7% | does not increase the enzymatic rate of hydrolysis | 101.9% | do not significantly increase the rate of enzymatic hydrolysis | 98.3% | 74.0% | do not have a similar effect |  |  |  |  |  |  |  |  | 
[Sr+2] [Sr^++, strontium ion] | increase the rate of enzymatic hydrolysis | 114.1% | does not increase the enzymatic rate of hydrolysis | 87.2% | do not significantly increase the rate of enzymatic hydrolysis | 93.8% |  |  |  |  |  |  |  |  |  |  | 
[Li+] [Li^+, lithium ion] | do not significantly increase the rate of enzymatic hydrolysis | 101.6% | does not increase the enzymatic rate of hydrolysis | 89.2% | increase the rate of enzymatic hydrolysis | 118.1% |  |  |  |  |  |  |  |  |  |  | 
[Na+] [Na^+] | do not significantly increase the rate of enzymatic hydrolysis | 95.1% | does not increase the enzymatic rate of hydrolysis | 84.2% | do not significantly increase the rate of enzymatic hydrolysis | 97.3% |  |  |  |  |  |  |  |  |  |  | 
[K+] [K^+, potassium ion] | do not significantly increase the rate of enzymatic hydrolysis | 101.1% | does not increase the enzymatic rate of hydrolysis | 82.8% | increase the rate of enzymatic hydrolysis | 113.3% |  |  |  |  |  |  |  |  |  |  | 
[Mg+2] [Mg^++, magnesium ion] | increase the rate of enzymatic hydrolysis | 110.8% | does not increase the enzymatic rate of hydrolysis | 83.8% | do not significantly increase the rate of enzymatic hydrolysis | 96.0% | 92.4% | do not have a similar effect |  |  |  |  |  |  |  |  | 
[Ca+2] [Ca^++, calcium ions] | increase the rate of enzymatic hydrolysis | 114.1% and 127.2% and 121.2% |  | 119.1% and 94.8% and 99.4% and 90.0% | increase the rate of enzymatic hydrolysis | 103.8% and 104.4% and 97.4% | 97.3% | do not have a similar effect | 111.8% and 105.8% and 105.0% | 83.6% | 108.0% |  |  |  |  |  | 
N [NH4^+] | do not significantly increase the rate of enzymatic hydrolysis | 95.1% | does not increase the enzymatic rate of hydrolysis | 86.4% | do not significantly increase the rate of enzymatic hydrolysis | 98.3% |  |  |  |  |  |  |  |  |  |  | 
manganese acetate [MnOAc] |  |  |  |  |  |  |  |  |  |  |  | 0.46% | 0.74% | 1.04% | 1.28% | 1.50% | 0%
O=S(=O)([O-])[O-].[Mn+2] [MnSO4, manganese sulfate] |  |  |  |  |  |  |  |  |  |  |  | 0.50% | 0.87% | 1.12% | 1.30% | 1.58% | 0%
O=C(O)CN(CCN(CC(=O)O)CC(=O)O)CC(=O)O.[Na].[Na] [Disodium EDTA, disodium ethylenediamine-tetraacetic acid] | do not significantly increase the rate of enzymatic hydrolysis | 100.4% | does not increase the enzymatic rate of hydrolysis | 103.8% | do not significantly increase the rate of enzymatic hydrolysis | 57.6% | 88.8% | do not have a similar effect |  |  |  |  |  |  |  |  | 
[Zn+2] [Zn^++] | do not significantly increase the rate of enzymatic hydrolysis | 70.6% | does not increase the enzymatic rate of hydrolysis | 100.2% | do not significantly increase the rate of enzymatic hydrolysis | 57.3% |  |  |  |  |  |  |  |  |  |  | 
[Al+3] [Al^+++] | do not significantly increase the rate of enzymatic hydrolysis | 77.5% | does not increase the enzymatic rate of hydrolysis | 95.1% | do not significantly increase the rate of enzymatic hydrolysis | 96.2% |  |  |  |  |  |  |  |  |  |  | 
[Ba+2] [Ba^++, barium ion] | increase the rate of enzymatic hydrolysis | 114.6% | does not increase the enzymatic rate of hydrolysis | 98.1% | do not significantly increase the rate of enzymatic hydrolysis | 99.3% |  |  |  |  |  |  |  |  |  |  | 
[Cu+2] [Cu^++] | do not significantly increase the rate of enzymatic hydrolysis | 6.7% | does not increase the enzymatic rate of hydrolysis | 30.0% | do not significantly increase the rate of enzymatic hydrolysis | 33.9% | 47.5% | do not have a similar effect |  |  |  |  |  |  |  |  | 
manganese chloride [MnCl2] |  |  |  |  |  |  |  |  |  |  |  | 0.44% | 0.74% | 1.01% | 1.22% | 1.70% | 0%
